From patent publication US8871794B2, “Small-molecule agonists for type-2 orexin receptor” (Board of Regents, The University of Texas System, priority 2008, dated 2014) come the findings set out here.

Where no end group is shown, it is not given here.

Assay [1] deals with wild type C57BL/6J mice. Kind of assay: Emergence from isoflurane anesthesia (return of righting reflex). It counts as in vivo, mouse. As to the method: Loss and Return of Righting Reflex. Induction and emergence from isoflurane or sevoflurane were defined behaviorally as the respective loss and return of the righting reflex and were evaluated as follows. Wild-type C57BL/6J male mice aged 8-14 weeks (Jackson Laboratories). were placed in cylindrical gas-tight, controlled-environment chambers arrayed in parallel (35). After 90 min of habituation with 100% oxygen each day on two successive days, anesthesia was induced with a Drager model 19.1 isoflurane or sevoflurane vaporizer by using 8-12 stepwise incremental increases in the concentration of anesthetic gas dissolved in 100% oxygen. Anesthetic gas concentrations were determined in triplicate during the last 2 min at each step (35). Initial volatile anesthetic concentrations were 0.44% isoflurane or 0.96% sevoflurane. After 15 min at each concentration to allow for equilibration of the mouse with the anesthetic vapors, the concentration of volatile anesthetic was increased by 6±3% of the preceding value. […]
Pharmacologic Inhibition of Orexin Signaling and Righting Reflex Studies. To determine the effect of the orexin-1R antagonist, SB-334867-A (Tocris Bioscience), on induction of anesthesia, 24 C57BL/6J mice were evaluated for both the concentration at which the righting reflex was lost as well as a separate experiment to measure the latency to loss of righting. […]

The test system of assay [2] is wild-type mice. Kind of assay: Diet-induced obesity in mice. It counts as in vivo, mouse. From the text:
To examine whether enhanced OX2R signaling causes resistance to diet-induced obesity, an OX2R selective agonist, [Ala11, D-Leu15] Orexin-B (Akanmu and Honma, 2005 Brain. Res. 1048. 138-145.; Asahi et al., 2003 Bioorg. Med. Chem. Lett. 13.
111-113) was continuously infused in the lateral ventricles of wild-type mice for 14 days. […] There was no effect of the OX2R selective agonist for OX2R-deficient mice on a high fat diet (n=4, weight gain 3.33±0.61 g), verifying the selectivity of the agonist in vivo.

Assay [3] has as its system orexin/ataxin-3-transgenic mice. As to the kind of experiment: Cataplexy testing in orexin/ataxin-3-transgenic mice. It counts as in vivo. The settings on record: 3 nmol per mouse i.c.v., first 3 h after injection, vs vehicle. From the text:
(§1) Aspects of this example, including more detailed descriptions of the production of the CAG/orexin-transgenic mice, the cataplexy testing, cannulation (i.c.v.) and orexin administration and EEG/EMG recordings were published in Mieda et al., PNAS USA Mar. 30, 2004; 101(13):4649-54.
(§2) We administered orexin-A, a nonselective agonist for orexin receptor type 1 (OX1R) and OX2R.
We examined whether i.c.v. orexin-A administration suppresses cataplectic arrests in orexin/ataxin-3-transgenic mice. By using a randomized crossover design, we administered vehicle and orexin-A to all mice during separate experimental sessions. […] Thus, i.c.v. administration of orexin-A is sufficient to acutely suppress behavioral arrests in this model of narcolepsy.

The test system of assay [4] is orexin/ataxin-3 mice and wild-type controls. Kind of assay: EEG/EMG sleep/wake recording in orexin/ataxin-3 and wild-type mice. The assay is classed as in vivo, mouse.
Text: as §1, §2
To quantify the effects of orexin-A administration on sleep/wake status, we recorded EEG/EMG in orexin/ataxin-3 mice, as well as wild-type controls. […] Nevertheless, some pharmacological effects of exogenous orexins have been reported to vary with time of day (Zeitgeber-dependent effects). We therefore examined the effects of orexin-A administrations in mice both at the onset of the dark (active) phase as well as during the light (resting) phase, again by using a randomized crossover design.

[5] abbreviates: 0.5 nmol/d infused in lateral ventricles, 14 days, wild-type mice.
[6] abbreviates: 3 nmol i.c.v., regardless of genotype and time of administration.

As to `Cc1nc2ccc(NC(=O)Nc3ccnc4cccnc34)cc2o1.Cl` [SB-334867-A], in assay [1] (5 mg/kg or 20 mg/kg i.p., 1.25% isoflurane), the “emergence from isoflurane anesthesia, dose dependence” value is “dose-dependent delay in emergence”. The “emergence from isoflurane anesthesia” value in assay [1] (20 mg/kg i.p. (F2,45=8.80, P<0.001)) was “significantly delayed emergence”.

Turning to [Ala11, D-Leu15] Orexin-B, in assay [2] (setting [5]), the “weight gain on a high fat diet” value was “suppressed weight gain” and the “weight homeostasis on a low fat diet” value is given as “without altering weight homeostasis”. Also, the “fat mass gain vs vehicle on a high fat diet” value in assay [2] (14 days, wild-type mice, high fat diet) is “gained significantly less fat mass”. Besides, the “fat mass gain on a low fat diet” value in assay [2] (14 days, wild-type mice, low fat diet) is recorded as “no effect was observed”. Also, the “effect for OX2R-deficient mice on a high fat diet” value in assay [2] (OX2R-deficient mice, high fat diet) was “no effect”. Also, the weight gain in assay [2] (OX2R-deficient mice, high fat diet, n=4) worked out at 3.33 ± 0.61 g. Further, the “change in LEPR, POMC, SOCS3, STAT3 transcripts” value in assay [2] (after 14 days) is recorded as “no significant change”. For the same compound, the “hypothalamic mRNA expression of orexigenic factors NPY and AGRP” value in assay [2] (after 14 days, high fat diet compared to low fat diet) is “reduced hypothalamic mRNA expression”. Moreover, in assay [2] (high fat vs low fat diet), the food intake result was “reduced food intake only on a high fat but not on low fat diet”.

With “orexin-A: a nonselective agonist for orexin receptor type 1 (OX1R) and OX2R (QPLPDCCRQKTCSCRLYELLHGAGNHAAGILTL; ends and bridges not checked; cysteine pairing not given here; UniProt O43612 34-66, looked up)”, in assay [3], the “frequency of cataplectic arrests” value is listed as “significantly reduced” and the “overall time spent in cataplexy” value is given as “significantly reduced”. In addition, in assay [4] (3 nmol i.c.v., 3-h period), the “non-REM sleep in narcoleptic animals compared with wild-type” value is reported as “significantly greater suppressions of non-REM sleep” and the “wakefulness in orexin/ataxin-3-transgenic mice compared with wild-type mice” value is “significantly greater amounts of wakefulness”. In addition, the “elevation of REM sleep in narcoleptic mice” value in assay [4] (3 nmol i.c.v., dark phase) is recorded as “effectively suppressed this elevation of REM sleep”. For the same compound, in assay [4] (setting [6]), the “non-REM and REM sleep” value is “suppressed both non-REM and REM sleep”; the wakefulness entry is “strikingly increased wakefulness”. Moreover, in assay [4] (3 nmol i.c.v., regardless of the time of administration), the “REM sleep suppression, narcoleptic mice vs wild-type controls” value is on record as “more effective at suppressing REM sleep in narcoleptic mice than in wild-type controls”. Besides, the “effects in knockout mice lacking both OX1R and OX2R genes” value in assay [4] (3 nmol per mouse i.c.v.) is on record as “no detectable effects”. Moreover, in assay [4] (24 h after a nocturnal administration), the “cumulative wakefulness and cumulative sleep in narcoleptic animals” value was “statistically significant increase of cumulative wakefulness and a decrease of cumulative sleep”. Besides, the “immediate rebounds of sleep” value in assay [4] (after dark-phase or light-phase administration) is reported as “no immediate rebounds of sleep were observed”.
